# Assays:
# [1] = mortality rate by supposed ingested dose in colchicine overdose; assay type: in vivo, human
# Protocol: Although the dose ingested has an influence on the clinical picture, it is not, by itself, enough to allow prediction of the death of the patient. Indeed, the mortality rate in the three groups of supposed ingested dose equal to or less than 0.35 mg/kg, >0.35—equal or less than 0.7, and >0.7 were 0 (0%), 6/33 (18%), and 12/36 (33%) (Fisher's exact test: p<0.0001). The relation of mortality rate to the dose is statistically highly significant albeit being weak. Therefore, from a clinical viewpoint, other parameters reflecting the effects of the dose should be considered to define the likelihood of death in colchicine overdose.
# [2] = cited from earlier work
structure (smiles),measurement,setting,value
"COc1cc2c(c(OC)c1OC)-c1ccc(OC)c(=O)cc1[C@@H](NC(C)=O)CC2 [colchicine, Colchicine]",mortality rate,"[1]; supposed ingested dose >0.7 mg/kg, 12/36",33%
same,mortality rate,"[1]; supposed ingested dose >0.35 to equal or less than 0.7 mg/kg, 6/33",18%
same,mortality rate,[1]; supposed ingested dose equal to or less than 0.35 mg/kg,0%
same,acute dose presumed to be fatal,[2],about 0.8 mg/kg

# Source: patent publication US20220003751A1, “METHOD FOR […] OF COLCHICINE-I[…]” (ASSISTANCE PUBLIQUE - HÔPITAUX DE PARIS, priority 2019, published 2022)
